“And” between values parts separate entries of the source, which are not always exact repeats. Equal values may be shown once.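 Dose response: 5 concentrations. Exposure: 48 h. Format: 96-well plates. Endpoint: linear interpolation; highest concentration if not reached. Here, GI50 denotes the concentration required for 50% inhibition of growth. TGI: concentration producing complete growth inhibition.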
What was measured:
Experiment in all cases: DTP human tumour cell line panel, 48 h
A498 renal = tested on: A498 renal
COLO 205 colon = tested on: COLO 205 colon
HCT-116 colon = tested on: HCT-116 colon
M14 melanoma = tested on: M14 melanoma
MOLT-4 leukemia = tested on: MOLT-4 leukemia
NCI/ADR-RES ovarian = tested on: NCI/ADR-RES ovarian
OVCAR-5 ovarian = tested on: OVCAR-5 ovarian
SF-539 CNS = tested on: SF-539 CNS
SK-MEL-28 melanoma = tested on: SK-MEL-28 melanoma
T-47D breast = tested on: T-47D breast

SMILES | TGI (A498 renal) | TGI (COLO 205 colon) [µM] | TGI (HCT-116 colon) | TGI (M14 melanoma) | TGI (MOLT-4 leukemia) | TGI (NCI/ADR-RES ovarian) [µM] | TGI (OVCAR-5 ovarian) | TGI (SF-539 CNS) | TGI (SK-MEL-28 melanoma) | TGI (T-47D breast) | GI50 (COLO 205 colon) [µM] | GI50 (M14 melanoma)
C/C(=N\O)c1cccc[n+]1Cc1ccccc1 | > 100 µM | > 100 | > 100 µM | > 100 µM | > 100 µM | > 100 | > 100 µM | > 100 µM | > 100 µM | > 100 µM | – | –
CN(C)c1ccc(/C=C/c2sc3ccccc3[n+]2C)cc1 | 26.2 µM and 32.7 µM | 0.377 | 10.9 µM and > 100 µM | 16.2 µM and 3.29 µM | 0.957 µM and 1.31 µM | > 100 | 26.6 µM and 61.5 µM | 9.91 µM and 17.8 µM | 15.7 µM and 6.34 µM | 11.1 µM and 30.5 µM | 0.185 | 3.66 µM and 0.427 µM
CCN1CCC(CNC(=O)c2ccc(N)cc2)N1CC (configuration not stated) | > 100 µM | > 100 | > 100 µM | > 100 µM | > 100 µM | > 100 | > 100 µM | > 100 µM | > 100 µM | > 100 µM | – | –
Cc1cc(S(=O)(=O)Nc2n[nH]c(N)n2)c(Cl)cc1Cl | > 10 µM | > 10 | > 10 µM | > 10 µM | > 10 µM | > 10 | > 10 µM | > 10 µM | > 10 µM | > 10 µM | – | –
O=C1CSC(c2cccc(Cl)c2)N1c1ccc(-c2ccc(-n3c(-c4ccccc4)nc4ccccc4c3=O)cc2)cc1 (configuration not stated) | > 100 µM | > 100 | > 100 µM | > 100 µM | > 100 µM | > 100 | > 100 µM | > 100 µM | > 100 µM | 97.9 µM | – | –
COc1ccc(NCC(=O)Nn2c(-c3ccccc3)nc3ccccc3c2=O)cc1 | 88.6 µM | > 100 | > 10 µM | > 100 µM | > 100 µM | 59.1 | > 100 µM | > 100 µM | > 100 µM | > 100 µM | – | –
O=C(Nc1ccc(S(=O)(=O)/N=c2\ncccn2C(=O)C(C(F)(F)F)C(F)(F)F)cc1)C(C(F)(F)F)C(F)(F)F | > 100 µM | > 100 | > 100 µM | > 100 µM | > 100 µM | > 100 | > 100 µM | > 100 µM | > 100 µM | > 100 µM | – | –
O=C(O)[C@H](CCC[C@H]1C(=O)O[C@H](c2ccccc2)[C@H](c2ccccc2)N1C(=O)OCc1ccccc1)N[C@@H](c1ccccc1)[C@H](O)c1ccccc1 | 62.1 µM | > 100 | 44.9 µM | > 100 µM | 62 µM | > 100 | > 100 µM | 34.4 µM | 39 µM | > 100 µM | – | –
CC1(C)COC2=C(C1)C(=O)c1ccccc1C2=O | 3.56 µM | 4.04 | 1.7 µM | 2.96 µM | 3.91 µM | 1.94 | 3.15 µM | 2.9 µM | 3.11 µM | 2.44 µM | – | –
CCOC(=O)c1c(SC(=O)c2ccc(OC)cc2)n(-c2ccccc2)c(=S)n(-c2ccccc2)c1=O | > 100 µM | > 100 | 47.9 µM | 83.2 µM | 64 µM | > 100 | > 100 µM | 42.2 µM | > 100 µM | > 100 µM | – | –
O=C(/C(=C\I)c1ccccc1)c1ccccc1 | 30.3 µM | 11.9 | 26.2 µM | 30.5 µM | 86.5 µM | 44.1 | 33.1 µM | 35.1 µM | 5.88 µM | 6.02 µM | – | –
Brc1cccc(C2ON=C(c3ccccc3)N2C23CC4CC(CC(C4)C2)C3)c1 (configuration not stated) | > 10 µM | > 10 | > 10 µM | > 10 µM | > 10 µM | > 10 | > 10 µM | > 10 µM | > 10 µM | > 10 µM | – | –
O=C(Cn1c(C(=O)c2ccccc2)nc2ccccc21)c1ccccc1 | > 100 µM | > 100 | > 100 µM | > 100 µM | > 100 µM | > 100 | > 100 µM | > 100 µM | > 100 µM | > 100 µM | – | –
COc1ccccc1C1(c2c(OC)c(=O)c2=O)SCCCS1 | > 100 µM | > 100 | > 100 µM | > 100 µM | > 100 µM | > 100 | > 100 µM | > 100 µM | > 100 µM | > 100 µM | – | –
COC1(CC[C@@H](C)COC2OC(CO)C(O)C(O)C2O)O[C@H]2C[C@H]3[C@@H]4CC=C5C[C@@H](OC6OC(CO)C(O)C(OC7OC(CO)C(O)C(O)C7O)C6OC6OC(C)C(O)C(O)C6O)CC[C@]5(C)[C@H]4CC[C@]3(C)[C@H]2[C@@H]1C (some centres not stated) | 26.9 µM | > 37.5 | 34.9 µM | 5.41 µM | > 31.6 µM | 33.6 | > 39.4 µM | 7.11 µM | 12.4 µM | 25.9 µM | – | –
Cc1ccc2nc(-c3ccc(C(C)(C)C)cc3)oc(=O)c2c1 | 62.8 µM | 35.5 | 51.9 µM | 74 µM | 39.3 µM | 54.2 | 89.5 µM | 40.6 µM | 62.1 µM | 83.4 µM | – | –
